Experimental findings from patent US20240279220A1, “INDOLE COMPOUNDS AND METHODS OF USE” (Genzyme Corporation, priority 2021, published 2024) are described below.

For one assay, the system named is NBD1/3D. Put plainly: Aggregation analysis using differential static light scattering (DSLS), NBD1 thermal stability. To be noted: ΔTagg versus DMSO control; compound at 100 μM. The assay is classed as binding, Human. A digest of the protocol:
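Purified NBD1 at 0.2 mg/ml in S200 buffer (pH 7.6, 2 mM ATP, 5 mM MgCl2, 1% glycerol) was heated with compound at 1 °C/min to 70 °C. Tagg taken from the light-scattering curve inflection point; ΔTagg = compound Tagg minus mean DMSO control Tagg.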

The target in a further assay is T1, CFTR (Homo sapiens, UniProt P13569, DEL508-508).
T1 construct: Primary human bronchial epithelial cells from a ΔF508 homozygous CF donor; host or cells: primary human bronchial epithelial cells (CF-HBE), ΔF508 homozygous donor
Nature of the assay: TECC24 recording of CFTR-mediated transepithelial chloride transport in ΔF508 homozygous CF-HBE cells. To be noted: 10 μM test agent, 48 hours incubation, AUC of forskolin-stimulated IEQ divided by vehicle AUC, primary CF-HBE cells. The assay is classed as cell-based. As for the experimental part:
The effects of a test agent on CFTR-mediated transepithelial chloride transport was measured using TECC24 recording analysis. Test agents were solubilized in DMSO. Solubilized test agents were mixed with incubation medium containing DMEM/F12, Ultroser G (2%; Crescent Chemical, catalog #67042), Hyclone Fetal Clone II (2%; GE Healthcare, catalog #SH30066.02), bovine brain extract (0.25%; Lonza, catalog #CC-4098), insulin (2.5 μg/mL), IL-13 (10 ng/mL), hydrocortisone (20 nM), transferrin (2.5 μg/mL), triiodothyronine (500 nM), ethanolamine (250 nM), epinephrine (1.5 μM), phosphoethanolamine (250 nM), and retinoic acid (10 nM). Primary human bronchial epithelial cells from a ΔF508 homozygous CF donor (CF-HBE cells; from University of North Carolina Cystic Fibrosis Tissue Procurement Center), grown on Transwell HTS 24-well cell culture inserts (Costar, catalog #3378), were exposed to test agents or controls dissolved in incubation medium. The CF-HBE cells were cultured at 36.5° C. for 48 hours before TECC24 recordings were performed in the presence or absence of test agent, a positive control or vehicle (DMSO).
Following incubation, the transwell cell culture inserts containing the test agent or control-treated CF-HBE cells were loaded onto a TECC24 apparatus (TECC v7 or MTECC v2; EP Design) to record the transepithelial voltage (VT) and resistance (TEER) using 4 AgCl electrodes per well configured in current-clamp mode. The apical and basolateral bath solutions both contained (in mM) 140 NaCl, 5 KCl, 2 CaCl2, 1 MgCl2, 10 Hepes, and 10 glucose (adjusted to pH 7.4 with NaOH). To inhibit basal Na+ absorption, the ENaC inhibitor benzamil (10 μM) was added to the bath. Then, the adenylate cyclase activator, forskolin (10 μM), was added to the bath to activate CFTR. The forskolin-stimulated Cl— transport was halted by addition of CFTR inhibitor-172 (20 μM) to the bath at the end of the experiment to confirm specificity. VT and TEER recordings were digitally acquired at routine intervals using TECC or MTECC software (EP Design). VT and TEER were transformed into equivalent transpeithelial Cl— current (IEQ), and the Area Under the Curve (AUC) of the IEQ timecourse between forskolin and CFTR inhibitor-172 addition is generated using Excel (Microsoft). Efficacy is expressed as the ratio of the test agent AUC divided by vehicle AUC. EC50s based on AUC are generated using the non-linear regression log(agonist) vs. response function in Prism software (Graphpad) with HillSlope fixed=1.
If a test agent increased the AUC of the forskolin-stimulated IEQ relative to vehicle in CF-HBE cells, and this increase was inhibited by CFTR inhibitor-172, then the test agent was considered a CFTR corrector.

T1 sequence (P13569 with tags, fused parts or gaps DEL508-508): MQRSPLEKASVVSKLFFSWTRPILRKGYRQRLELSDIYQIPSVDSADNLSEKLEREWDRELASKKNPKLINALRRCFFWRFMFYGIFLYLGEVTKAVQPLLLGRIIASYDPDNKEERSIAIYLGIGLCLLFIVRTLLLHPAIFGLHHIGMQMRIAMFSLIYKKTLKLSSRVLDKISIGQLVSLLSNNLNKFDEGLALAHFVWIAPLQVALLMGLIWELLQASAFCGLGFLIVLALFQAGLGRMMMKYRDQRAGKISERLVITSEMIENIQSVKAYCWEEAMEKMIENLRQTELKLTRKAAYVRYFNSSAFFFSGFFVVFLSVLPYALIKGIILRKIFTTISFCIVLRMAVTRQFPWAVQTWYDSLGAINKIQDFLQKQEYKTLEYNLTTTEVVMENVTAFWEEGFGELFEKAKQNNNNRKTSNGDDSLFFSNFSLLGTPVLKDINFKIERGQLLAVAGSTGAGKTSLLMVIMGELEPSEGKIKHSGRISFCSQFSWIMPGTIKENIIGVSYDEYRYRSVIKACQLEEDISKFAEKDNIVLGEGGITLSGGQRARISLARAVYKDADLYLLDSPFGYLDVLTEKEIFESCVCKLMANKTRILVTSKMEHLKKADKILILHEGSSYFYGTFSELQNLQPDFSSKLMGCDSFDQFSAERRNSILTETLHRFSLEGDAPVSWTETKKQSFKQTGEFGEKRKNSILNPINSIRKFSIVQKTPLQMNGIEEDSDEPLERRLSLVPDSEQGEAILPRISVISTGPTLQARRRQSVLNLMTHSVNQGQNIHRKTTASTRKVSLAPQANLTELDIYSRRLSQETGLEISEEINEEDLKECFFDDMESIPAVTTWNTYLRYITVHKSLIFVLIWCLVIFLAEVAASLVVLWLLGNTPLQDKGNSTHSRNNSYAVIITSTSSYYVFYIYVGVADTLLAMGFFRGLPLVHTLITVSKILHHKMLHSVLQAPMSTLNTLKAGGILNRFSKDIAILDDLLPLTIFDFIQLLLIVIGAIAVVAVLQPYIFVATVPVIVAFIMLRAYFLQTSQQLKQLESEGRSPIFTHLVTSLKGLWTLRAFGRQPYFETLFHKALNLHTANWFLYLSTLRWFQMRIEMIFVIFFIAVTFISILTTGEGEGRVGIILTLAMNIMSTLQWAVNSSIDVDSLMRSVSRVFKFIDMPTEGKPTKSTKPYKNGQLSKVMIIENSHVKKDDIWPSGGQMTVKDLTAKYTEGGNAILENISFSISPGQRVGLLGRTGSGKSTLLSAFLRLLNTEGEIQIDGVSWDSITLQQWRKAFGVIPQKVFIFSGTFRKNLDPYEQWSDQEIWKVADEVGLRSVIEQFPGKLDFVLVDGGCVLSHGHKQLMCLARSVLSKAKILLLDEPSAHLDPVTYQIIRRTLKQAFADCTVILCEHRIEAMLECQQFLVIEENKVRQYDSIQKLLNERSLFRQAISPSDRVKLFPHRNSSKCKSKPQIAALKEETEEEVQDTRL

Regarding `CC(c1cn(C)c(-c2cc(Oc3c(F)cc4[nH]ccc4c3F)ccc2F)n1)c1cccc(CCC(=O)O)c1F` (single isomer, unassigned) [Example 278B, 3-(3-(1-(2-(5-((4,6-difluoro-1H-indol-5-yl)oxy)-2-fluorophenyl)-1-methyl-1H-imidazol-4-yl)ethyl)-2-fluorophenyl)propanoic acid], in the assay with NBD1/3D, the “DSLS NBD1/3D Human Stability delta-T (° C.) @ 100 (μM)” value (“DSLS NBD1/3D Human Stability delta-T” for short) was “B (B: 5-10° C.)”. Further, the “TECC24 @ 10 μM over DMSO (AUC fold over DMSO)” value at CFTR is “A (“A” refers to AUC @10 uM >= 12)”.
In the same order, the values of `CNC(=O)c1c(Oc2ccc(F)c(-c3ncc(Cc4cccc(CCC(=O)O)c4)[nH]3)c2)c(F)cc2[nH]ccc12` [Example 140, 3-(3-((2-(2-Fluoro-5-((6-fluoro-4-(methylcarbamoyl)-1H-indol-5-yl)oxy)phenyl)-1H-imidazol-5-yl)methyl)phenyl)propanoic acid] are “B (B: 5-10° C.)” and “C (“C” refers to AUC @ 10 uM <= 4)”.
In the same order, the values of `CC(c1cnc(-c2cc(Oc3c(F)cc4[nH]ccc4c3CN3CCCS3(=O)=O)ccc2F)[nH]1)c1cccc(CCC(=O)O)c1F` (single isomer, unassigned) [Example 134B, 3-(3-(1-(2-(5-((4-((1,1-dioxidoisothiazolidin-2-yl)methyl)-6-fluoro-1H-indol-5-yl)oxy)-2-fluorophenyl)-1H-imidazol-5-yl)ethyl)-2-fluorophenyl)propanoic acid] are “A (A: T ≥ 10° C.)” and “A (“A” refers to AUC @10 uM >= 12)”.
In the same order, the values of `C[C@H]1C[C@](c2cccc(CCC(=O)O)c2)(c2c[nH]c(-c3cc(Oc4c(F)cc5[nH]ccc5c4F)ccc3F)n2)CCO1` (racemic) [Example 155, 3-(3-((2S)-4-(2-(5-((4,6-difluoro-1H-indol-5-yl)oxy)-2-fluorophenyl)-1H-imidazol-5-yl)-2-methyltetrahydro-2H-pyran-4-yl)phenyl)propanoic acid] are “A (A: T ≥ 10° C.)” and “A (“A” refers to AUC @10 uM >= 12)”.
Regarding `CC(c1cnc(-c2cc(Oc3c(F)cc4[nH]ccc4c3CC(F)(F)F)ccc2F)[nH]1)c1cccc(CCC(=O)O)c1F` (single isomer, unassigned) [Example 128B, 3-(2-fluoro-3-(1-(2-(2-fluoro-5-((6-fluoro-4-(2,2,2-trifluoroethyl)-1H-indol-5-yl)oxy)phenyl)-1H-imidazol-5-yl)ethyl)phenyl)propanoic acid], the “DSLS NBD1/3D Human Stability delta-T” value in the assay with NBD1/3D was “A (A: T ≥ 10° C.)”. Besides, the “TECC24 @ 10 μM over DMSO (AUC fold over DMSO)” value on CFTR is on record as “A (“A” refers to AUC @10 uM >= 12)”.
For `CC(C)(O)c1nc(-c2cc(Oc3c(F)cc4[nH]ccc4c3F)ccc2F)[nH]c1Cc1cccc(CCC(=O)O)c1F` [Example 280, 3-(3-((2-(5-((4,6-Difluoro-1H-indol-5-yl)oxy)-2-fluorophenyl)-4-(2-hydroxypropan-2-yl)-1H-imidazol-5-yl)methyl)-2-fluorophenyl)propanoic acid], the “DSLS NBD1/3D Human Stability delta-T” value in the assay on NBD1/3D is on record as “B (B: 5-10° C.)”. Besides, the “TECC24 @ 10 μM over DMSO (AUC fold over DMSO)” value at CFTR is recorded as “A (“A” refers to AUC @10 uM >= 12)”.
In the same order, the values of `[2H]c1c[nH]c2c(F)c(F)c(Oc3ccc(F)c(-c4nc(C(C#N)(c5cc(F)cc(CCC(=O)O)c5)C([2H])([2H])[2H])c[nH]4)c3)c(F)c12` (single isomer, unassigned) [Example 67B, 3-(3-(1-cyano-1-(2-(2-fluoro-5-((4,6,7-trifluoro-1H-indol-5-yl-3-d)oxy)phenyl)-1H-imidazol-4-yl)ethyl-2,2,2-d3)-5-fluorophenyl)propanoic acid] are “B (B: 5-10° C.)” and “C (“C” refers to AUC @ 10 uM <= 4)”.
In the same order, the values of `CC(c1cnc(-c2cc(Oc3c(F)cc4[nH]ccc4c3CP(C)(C)=O)ccc2F)[nH]1)c1cccc(CCC(=O)O)c1F` (single isomer, unassigned) [Example 133B, 3-(3-(1-(2-(5-((4-((dimethylphosphoryl)methyl)-6-fluoro-1H-indol-5-yl)oxy)-2-fluorophenyl)-1H-imidazol-5-yl)ethyl)-2-fluorophenyl)propanoic acid] are “A (A: T ≥ 10° C.)” and “C (“C” refers to AUC @ 10 uM <= 4)”.
`O=C(O)CCc1cccc(Cc2cnc(-c3cc(Oc4c(F)c(F)c5[nH]ccc5c4F)ccc3F)[nH]2)c1` [Example 123, 3-(3-((2-(2-fluoro-5-((4,6,7-trifluoro-1H-indol-5-yl)oxy)phenyl)-1H-imidazol-5-yl)methyl)phenyl)propanoic acid]: the “DSLS NBD1/3D Human Stability delta-T” value with NBD1/3D was “B (B: 5-10° C.)”. Further, the “TECC24 @ 10 μM over DMSO (AUC fold over DMSO)” value on CFTR is recorded as “B (“B” refers to AUC @10 uM between 4-12)”.
In the same order, the values of `CC(c1cnc(-c2cc(Oc3c(F)cc4[nH]ccc4c3CCP(C)(C)=O)ccc2F)[nH]1)c1cccc(CCC(=O)O)c1F` (single isomer, unassigned) [Example 135A, 3-(3-(1-(2-(5-((4-(2-(dimethylphosphoryl)ethyl)-6-fluoro-1H-indol-5-yl)oxy)-2-fluorophenyl)-1H-imidazol-5-yl)ethyl)-2-fluorophenyl)propanoic acid] are “A (A: T ≥ 10° C.)” and “C (“C” refers to AUC @ 10 uM <= 4)”.
In the same order, the values of `CC(O)(c1cccc(CCC(=O)O)c1)c1c[nH]c(-c2cc(C(=O)c3ccc4[nH]ccc4c3)ccc2F)n1` (stereo not shown) [Example 194, 3-(3-(1-(2-(2-fluoro-5-(1H-indole-5-carbonyl)phenyl)-1H-imidazol-4-yl)-1-hydroxyethyl)phenyl) propanoic acid] are “B (B: 5-10° C.)” and “C (“C” refers to AUC @ 10 uM <= 4)”.
`O=C(O)CCc1cccc(Cc2c[nH]c(-c3cc(Oc4c(F)cc5c(ccn5P(=O)(O)O)c4F)ccc3F)n2)c1F` [Example 270, 3-(3-((2-(5-((4,6-Difluoro-1-phosphono-1H-indol-5-yl)oxy)-2-fluorophenyl)-1H-imidazol-4-yl)methyl)-2-fluorophenyl)propanoic acid]: in the assay on NBD1/3D, the “DSLS NBD1/3D Human Stability delta-T” value is on record as “C (C: ≤5° C.)”. Moreover, the “TECC24 @ 10 μM over DMSO (AUC fold over DMSO)” value at CFTR is “C (“C” refers to AUC @ 10 uM <= 4)”.
On the same counts, the results for `Cc1c(Oc2ccc(F)c(-c3ncc([C@H](C)c4cccc([C@@H]5C[C@H]5C(=O)O)c4F)[nH]3)c2)c(F)cc2[nH]ccc12` (single isomer, unassigned) [Example 139F, trans-2-(2-fluoro-3-(1-(2-(2-fluoro-5-((6-fluoro-4-methyl-1H-indol-5-yl)oxy)phenyl)-1H-imidazol-5-yl)ethyl)phenyl)cyclopropane-1-carboxylic acid] are “A (A: T ≥ 10° C.)” and “B (“B” refers to AUC @10 uM between 4-12)”.
On the same counts, the results for `COC(=O)CCc1cccc(C(O)c2cnc(-c3cccc(Oc4c(F)cc5[nH]ccc5c4-c4nccs4)c3)[nH]2)c1` (stereo not shown) [Example 86, Methyl 3-(3-((2-(3-((6-fluoro-4-(thiazol-2-yl)-1H-indol-5-yl)oxy)phenyl)-1H-imidazol-5-yl)(hydroxy)methyl)phenyl)propanoate] are “C (C: ≤5° C.)” and “C (“C” refers to AUC @ 10 uM <= 4)”.
